Marks after values point to notes of the source that are not given here.
How the values were obtained:
[1] = Relaxation time and relaxivity of nitroxyl contrast agents compared with Gd-DTPA; format: physicochemical
Text: The present invention is predicated on the difference in reducing capability and provides a method of determining the redox status of a region of interest in an animal tissue, such as a tumor. By determining the redox status of a tumor it is possible to not only diagnose a tumor due to its enhanced reduction of intracellular nitroxide contrast agent, but also to determine appropriate radiation treatment fields spatially to deliver therapeutic doses of radiation, and to determine appropriate timing sequences after the administration of a nitroxide contrast agent such that the maximum difference between normal and tumor tissue with respect to the radioprotective form of the nitroxide is present in the normal tissue, thereby limiting collateral damage to the normal tissue. The T1-contrast afforded by the nitroxide class of compounds, by virtue of their paramagnetic relaxivity which is in the range of 0.2 (mM s)−1 makes it possible to use standard MRI scanners to obtain the redox information in the inventive method. Typical relaxivity and relaxation times are shown for various nitroxyl contrast agents compared with a standard contrast agent, Gd-DTPA, in Table 1. […] Without being bound to any particular theory, it is believed that the T1 relaxation of protons could be affected by paramagnetic electron spin. Therefore, a change of MRI contrast before and after administration of a nitroxyl spin probe (i.e., a nitroxide contrast agent) should reflect the amount of nitroxyl in addition to providing anatomical mapping simultaneously. Such anatomical mapping provides the ability to diagnose the existence of a tumor, determine the status of a tumor, determine borders of a radiation treatment field, determine appropriate timing and dosage for radiation treatment, as well as determining the efficacy of radiation and other forms of cancer treatment.

[2] = Decay rate of nitroxyl contrast agent by 4.7 T SPGR T1-weighted MRI; format: in vivo, C3H mice; details: 1.5 μmol/g b.w. i.v., mean ± SD
Protocol: (§1) Female C3H mice were supplied by the Frederick Cancer Research Center, Animal Production (Frederick, Md.). Animals, received at six weeks of age, were housed five per cage in climate controlled circadian rhythm-adjusted rooms and were allowed food and water ad libitum. Experiments were carried out in compliance with the Guide for the Care and Use of Laboratory Animal Resources (1996), National Research Council, and approved by the National Cancer Institute Animal Care and Use Committee. Experiments were performed within 4 weeks of their arrival at the facility. Their body weight measured before the experiments was in the range 25-28 g. A squamous cell carcinoma was implanted and grown on the right hind leg for a week.
MRI and pulse sequence measurements were also obtained. MRI measurements were performed at 4.7 T controlled with ParaVision®3.0.1 (Bruker BioSpin MRI GmbH, Rheinstetten, Germany). […]
The EPRI and MRI data were analyzed using the ImageJ software package (a public domain Java image processing program inspired by NIH Image that can be extended by plug-ins, http://rsb.info.nih.gov/ij/). T1 and T2 mappings were calculated using a plug-in (MRI analysis calculator, Karl Schmidt, HypX Laboratory, Brigham and Women's Hospital) available in ImageJ. […]

[3] = Decay rate of nitroxyl contrast agent by 300 MHz CW EPR imaging (EPRI); format: in vivo, C3H mice; details: 1.8 μmol/g b.w. i.v., mean ± SD
Protocol: as §1
Mice were anesthetized by isoflurane (1.5%) in medical air (700 mL/min). Both tumor and normal legs were placed on special mouse holder and fixed with adhesive tapes on the divider between both legs. […]
The EPRI and MRI data were analyzed using the ImageJ software package (a public domain Java image processing program inspired by NIH Image that can be extended by plug-ins, http://rsb.info.nih.gov/ij/). T1 and T2 mappings were calculated using a plug-in (MRI analysis calculator, Karl Schmidt, HypX Laboratory, Brigham and Women's Hospital) available in ImageJ.
A time course of CW EPR imaging after injection of a nitroxyl contrast agent was determined. […]

[4] = Decay rate of nitroxyl contrast agent by in vivo 700 MHz EPR spectroscopy with surface coil (EPRS); set-up: species or system C3H mice; details: linear part 7.5-20 min, mean ± SD
Protocol: as §1
In vivo EPR spectroscopic measurement of the nitroxyl probe were obtained. Mice were anesthetized and placed on special mouse holder and fixed with adhesive tapes. The single loop surface coil (7.3 mm i.d.) was placed on the normal or the tumor leg. EPR signal was measured by CW EPR at 700 MHz. EPR conditions were as follows: microwave frequency=700 MHz, microwave power=10 mW, field modulation frequency=13.5 kHz, field modulation amplitude=0.3 Gauss, time constant=0.03 s, sweep width=60 Gauss, scan time=8 s. The center line of the triplet was repeatedly obtained every 20 s for 20 min. […]

[5] = Nitroxyl radical decay rate in tissues, from change in MRI contrast over time; format: in vivo, mice; details: for Decay Rate: MRI, mean ± SD
Protocol: In the inventive method, the amount of reduced nitroxyl contrast agent (i.e., hydroxylamine) in the animal tissue is determined. This determination can be made using any suitable method. For example, MRI contrast changes and the difference in concentration of a nitroxyl contrast agent, such as 3CP, show linearity in low concentration level (i.e., below 1.5 mM). To perform T1 and T2 mapping, spin echo images can be obtained using a multi-slice multi-echo (MSME) sequence. For instance, a time sequence of the total number of SPGR images may be determined. The images can then be averaged and each image may be divided by the averaged initial image. Semi-logarithmic values of the averaged image intensity in a given region of interest can be plotted versus time after injection. The change in intensity can be determined at one or more time points after injection of a nitroxyl contrast agent. For example, changes in intensity may be made every 10 s, 20 s, 30, 40 s, 50 s, or every 1, 5, 7, 10, 15, 20 minutes, or any integer in between, after injection of a nitroxyl contrast agent. A decay rate can be obtained from the linear part of the slope after peak by the least squares method. A sample calculation of a decay rate using nitroxyl contrast agent 3CP is as follows: The spoiled gradient echo (SPGR) image intensity Mt at time t after nitroxyl contrast agent injection can be calculated using the equation:
Mt=M0×[1−EXP(−TR/T1t)]×EXP(−TE/T2)×{sin α/[1−cos α×EXP(−TR/T1t)]}.
In the above equation, MO is proton density, and a is flip angle. Tissue (or sample) T1 can change with particular time t (min.) (T1t) depending on the concentration of the 3CP (Ct). T1t[…]1/R1t and R1t=1/T1i+r1×Ct, where R1t is T1 relaxation […] t, the relaxivity r1 of 3CP is 0.17 mM^−1s-1, T1i is the initial T1 base line (intrinsic tissue T1). Ct (mM), which is the first concentration of 3CP at particular time t (min.), is calculated by assuming first order decay as indicated by the equation Ct=Cmax×EXP([…]), where ktrue is the given decay rate. Logarithmic values of the intensity change from the baseline (ie. ΔM % t=(Mt/Mi−1)×100 or ΔMt=Mt−Mi), can be plotted with time t. Mi is the intrinsic signal intensity of the tissue (or sample) calculated as Ct=0. The decay constant kMRI can be obtained from the slopes of the plots ΔM % t and ΔMt by least square fit.
Typical decay rates, determined by a change in intensity over time, are shown in Table 1 and FIG. 1 for nitroxyl contrast agents Tempol, Carbamoyl-PROXYL, Carboxyl-PROXYL in normal tissue, tumor, blood, and left and right kidney tissues. These decay rates may then be used to determine the redox status of the tissue. When a decay rate is calculated pixel-wise, redox mapping can be obtained. That is, regions showing a faster rate of decay correspond to hypoxic regions.

| Structure (SMILES) | Relaxivity [1] | relaxivity r1 ([1]; value used in sample decay-rate calculation) | Normal Leg Decay Rate ([2]; normal leg) | Tumor Leg Decay Rate ([2]; squamous cell carcinoma leg) | Normal Leg Decay Rate ([3]; normal leg) | Tumor Leg Decay Rate ([3]; squamous cell carcinoma leg) | Normal Leg Decay Rate ([4]; normal leg) | Tumor Leg Decay Rate ([4]; squamous cell carcinoma leg) | Decay Rate ([5]; Blood) | Decay Rate ([5]; Left Kidney) | Decay Rate ([5]; Normal Leg) | Decay Rate ([5]; Right Kidney) | Decay Rate ([5]; Tumor Leg) | rate of decay, tumor versus normal tissue ([5]; in vivo MRI, FIG. 2) |
| --- | --- | --- | --- | --- | --- | --- | --- | --- | --- | --- | --- | --- | --- | --- |
| CC1(C)CC(C(N)=O)C(C)(C)N1[O] (stereo not drawn) [Carbamoyl-PROXYL, 3-carbamoyl-2,2,5,5-tetramethyl-1-pyrrolidine-N-oxyl] | 0.171 mM⁻¹ s⁻¹ | 0.17 mM⁻¹ s⁻¹ | 0.0766 ± 0.0070 min⁻¹ | 0.1073 ± 0.0057* min^−1 | 0.0356 ± 0.0122 min⁻¹ | 0.0468 ± 0.0086 min⁻¹ | 0.0551 ± 0.0059 min⁻¹ | 0.0669 ± 0.0144* min^−1 | – | – | – | – | – | – |
| CC1(C)CC(C(=O)O)C(C)(C)N1[O] (stereo not drawn) [Carboxy-PROXYL] | 0.180 mM⁻¹ s⁻¹ | – | – | – | – | – | – | – | – | – | – | – | – | – |
| CC1(C)CC(O)CC(C)(C)N1[O] [Tempol, 2,2,6,6-tetramethyl-4-piperidinol-N-oxyl] | – | – | – | – | – | – | – | – | 1.025 ± 0.213 min⁻¹ | 1.470 ± 0.199 min⁻¹ | 0.319 ± 0.025 min⁻¹ | 1.160 ± 0.333 min⁻¹ | 1.095 ± 0.203** min^−1 | greater in tumor versus normal tissue |
